Several values for one entry are separate records, joined by “and”; a condition that tells them apart may be missing. Equal values may be shown once. Entries after “also recorded” stand apart in the source; their conditions may differ. Read-outs that look alike come from different tables or passages of the source.
How the values were obtained:
[1] = cited from earlier work
[2] = system: asthmatic mice; test: Airway resistance (Raw) response to methacholine in murine model of asthma (forced oscillation); type: in vivo, Balb/cJ mice
Protocol: Balb/cJ mice aged 6 weeks (Jackson Animal Laboratory, Bar Harbor, Me.) were housed under specific pathogen-free conditions and fed a chicken ovalbumin-free diet. The Animal Research Ethics Boards of both the University of Houston and the Baylor College of Medicine approved all experiments reported here. […] Mice were sensitized with subcutaneous injection of 25 μg of ovalbumin adsorbed to aluminum hydroxide on protocol days 2, 9, and 16. Subsequently, mice were given 50 μL of saline solution containing 25 μg of ovalbumin intranasally, on a daily basis, from protocol days 23 through 27. A group of ovalbumin-sensitized saline-challenged mice serves as controls for systemic sensitization and respiratory challenges with ovalbumin. Prior to intranasal administrations, mice were sedated with halothane vapor.
To examine the effects of duration of β-adrenergic ligand therapy on the phenotype of the murine model of asthma, the experimental drugs were administered either acutely or chronically to different groups of asthmatic mice.
Asthmatic mice on acute therapy were given a single intravenous bolus infusion of either β-adrenergic drug or normal saline on protocol day 28, 15 minutes before airway responsiveness to methacholine was determined. […] […] […] These concentrations were chosen based on those producing therapeutic effects in mice in previously published studies. The non-asthmatic mice were fed normal chow.
On protocol day 28, mice were anesthetized, tracheotomized, and connected to a computer-controlled small animal ventilator (Flexivent, Scientific Respiratory Equipment, Inc., Montreal, Canada). Airway resistance (Raw) was measured using the forced oscillation technique. The cellular composition of bronchoalveolar lavage fluid (BALF) was also determined.
To induce airway constriction, a solution containing 150 μg/mL of acetyl-α-methylcholine chloride (methacholine) (Sigma Chemical, St. Louis, Mo.) was infused intravenously at constant rates using a syringe infusion pump (Raze Scientific Instruments, Stanford, Conn.). […] Each methacholine dose was administered for 3 to 5 minutes, during which data were sampled at 1-minute intervals and then averaged.
The complex input impedance of the respiratory system was computed and the value of the real part of respiratory system impedance at 19.75 Hz was taken to reflect the magnitude of airway resistance (Raw). To examine the degree of airway responsiveness of each animal, the values for Raw as a function of methacholine doses were plotted. The largest value for Raw achieved in response to methacholine stimulation was referred to as Rawpeak. For mice that achieved a plateau in the methacholine dose-Raw response curve, the ED50 was calculated by linear interpolation using the GraphPad Prism4 (GraphPad Software, Inc.). […] The Bonferroni test was used to examine the statistical differences between experimental groups. The effects of acute drug treatments on baseline respiratory system mechanics were assessed using a two-tailed paired t-test. A value of P<0.05 was considered significant.
For these experiments, salbutamol was used for chronic administration at 0.5 mg/kg/day with a minipump and for acute administration at 0.15 mg/kg by i.v. bolus 15 minutes prior to challenge. Alprenolol was used at a high dose of 7200 ppm in chow or at a low dose of 720 ppm in chow. Carvedilol was used at a high dose of 2400 ppm in chow or at a low dose of 720 ppm in chow.

[3] = system: asthmatic mice; conditions: Callaerts-Vegh et al. 2004, cited from earlier work
[4] = system: interleukin 10 (IL-10); test: IL-10 levels in BALF; type: in vivo, mice
Protocol: (§1) Bronchial alveolar lavage fluid was collected from treated animals and total immune cell number was determined and the total number of eosinophils was also determined. Additionally, the interleukin 10 (IL-10) levels were determined in the mice.

[5] = system: adults with mild asthma; conditions: human, in vivo
Description: (§3) Study Design: The study is an open-label Phase IIa, proof of principle, 11-week, dose escalation study in mild asthma. Up to twelve subjects with mild asthma, not taking inhaled corticosteroids or other controller medications are to be recruited from a single clinical research center. […] Combivent rescue medication was provided to subjects during the run-in period to replace their own rescue medication which typically is Albuterol (salbutamol a beta 2 partial agonist).
(§4) The subjects are maintained at their maximum tolerated dose for a minimum of 4 weeks.
(§5) All the following criteria had to be met for dose escalation otherwise the dose was kept at maintenance level (same dose), reduced to previous lower tolerated dose or the subject was terminated from the study.
(§6) Data collected at baseline and during study visits include lung function (spirometry—FEV1 and daily peak flow rates —PEFR), asthma symptoms via dairy cards), heart rate and blood pressure. In addition, airway hyper-responsiveness (methacholine challenge test—PC20) and Asthma Control Questionaire (Juniper ACQ) will be performed. Blood is collected to monitor beta adrenergic receptor levels in lymphocytes and baseline laboratory evaluation.

[6] = system: asthmatic mice; test: Total number of immune cells in BALF (Example 12); type: in vivo; conditions: did not reach statistical significance
Protocol: as §1

[7] = system: adults with mild asthma
Description: as §3, §4, §5, §6

[8] = system: β2-adrenergic receptor; type: binding, mice; conditions: 2 days of administration
Protocol: (§2) β2-adrenergic receptor numbers were measured in asthmatic mice as follows. […] Mice were sacrificed and lung membranes were isolated as follows. Frozen lung tissue was homogenized in an ice-cold buffer containing 0.32 M sucrose and 25 mM Tris (pH 7.4) using a polytron (Pro 200, Pro Scientific, Inc.). The homogenate was centrifuged at 1000×g for 10 min at 4° C. The resulting supernatant was centrifuged at 40,000×g for 20 min at 4° C. The pellet was suspended in an ice-cold 25 mM Tris-HCl buffer (pH 7.4) and centrifuged at 40,000×g for 20 min at 4° C. The final pellet was suspended in 200 μL of 25 mM Tris-HCl (pH 7.4); membrane protein concentration was determined by BCA protein assay kit. […] The incubation was done at 37° C. for 2 h and terminated by rapid vacuum filtration through glass fiber filters. The filters were washed three times with 250 μL of cold wash buffer (25 mM Tris-HCl, pH 7.4) and the radioactivity determined in a counter. […] Receptor densities are expressed as femtomoles of sites per milligram of protein. Bmax is determined by nonlinear regression of the saturation binding curves.

[9] = biological target: β2-adrenergic receptor (Mus musculus, UniProt P18762); type: binding, mice
Protocol: as §2

[10] = system: β2-adrenergic receptor; test: Immunohistochemistry of β2-adrenergic receptor levels in lungs; type: in vivo, mice; conditions: chronic treatment vs untreated animals
Protocol: The mice were sacrificed and the lungs excised. […] Lungs were embedded in OCT and 12-μm sections cut with a Tissue-Tek II cryostat. […] After 3 washes in PBS, the slides were blocked with 5% milk in PBS for 1 h, and then incubated overnight with anti-β2-adrenergic receptor antibody (1:200, Santa Cruz Biotechnology) in blocking solution. Slides were washed in PBS and incubated with secondary antibody (1:200, Cy3 goat anti-rabbit, 16 h at 4° C.). […] After washing with PBS, coverslips were mounted and viewed by epifluorescent microscopy.

[11] = system: adults with mild asthma; test: Phase IIa clinical trial of chronic oral nadolol, tolerability and cardiovascular function; conditions: for Heart rate at 4 hrs after administration of dose: subject 003, 80 mg
Description: as §3, §4, §5, §6

Chain of β2-adrenergic receptor (Mus musculus, UniProt P18762) (P18762 whole entry): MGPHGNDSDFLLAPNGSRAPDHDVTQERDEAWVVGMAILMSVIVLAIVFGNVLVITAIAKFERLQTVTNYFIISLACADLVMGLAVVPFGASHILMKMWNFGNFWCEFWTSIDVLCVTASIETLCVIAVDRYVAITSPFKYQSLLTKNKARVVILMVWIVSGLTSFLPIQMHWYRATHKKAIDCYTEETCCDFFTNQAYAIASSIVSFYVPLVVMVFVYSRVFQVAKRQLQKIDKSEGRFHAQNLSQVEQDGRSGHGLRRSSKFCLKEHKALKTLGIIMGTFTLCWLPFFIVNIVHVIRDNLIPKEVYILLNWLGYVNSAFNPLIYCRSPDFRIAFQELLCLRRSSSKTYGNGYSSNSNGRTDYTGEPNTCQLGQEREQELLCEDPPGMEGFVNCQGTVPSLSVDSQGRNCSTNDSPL

CC(C)(C)NCC(O)COc1cccc2c1CC(O)C(O)C2 (stereo not drawn) [nadolol]
time to maximum drug in the bloodstream ([1]; immediate-release oral tablets once a day): about 3.5 hours | half-life ([1]; immediate-release oral tablets): about 16 hours | airway resistance (Raw) ([2]; 1 ppm in chow): identical to the untreated mice | Decreased Raw ([2]; 15 minutes of administration): no | Decreased Raw ([2]; 2 days of administration): yes | Decreased Raw ([2]; 28 days of administration): yes | airway function ([2]; acute, parenteral administration, asthmatic mice): significant reduction in airway function | airway responsiveness to methacholine provocation (Raw) ([2]; asthmatic mice, acute: single intravenous bolus 15 minutes before methacholine): enhanced the airway responsiveness | airway responsiveness to methacholine provocation (Raw) ([2]; asthmatic mice, chronic administration for 28 days): produced a decrease in airway responsiveness, which was more pronounced than that caused by carvedilol treatment | protection from airway hyperresponsiveness ([2]; chronic administration, low and high doses in chow (FIGS. 8D-8G)): providing protection from airway hyperresponsiveness | observed airway adverse effects ([2]; orally in the animal chow at 250 ppm): noticeably wheezing and airway distress | airway hyperresponsiveness ([3]; administered acutely): worsens airway hyperresponsiveness | airway hyperresponsiveness ([3]; administered chronically): prevents airway hyperresponsiveness | IL-10 levels in BALF ([4]; acute treatment, P<0.01 vs S/C): a reduction was observed | IL-10 levels in BALF ([4]; chronic treatment, P<0.05 vs NS/NC, P<0.001 vs S/C): statistically significant increases | serious adverse events due to study drug administration [5]: No serious adverse events | tolerability of the first dose [5]: All subjects tolerated the first 10 mg dose | lower number of cells in BALF compared to non-drug-treated (S/C) mice ([6]; acute treatment): approximately 25% | lower number of cells in BALF compared to non-drug-treated (S/C) mice ([6]; chronic treatment): approximately 25% | ACQ Score Δ ([7]; Asthma Control Questionnaire, absolute change from baseline, per subject): results were mixed | PEFR % Change baseline ([7]; average last 14 days of treatment vs last 14 days of run-in, per subject): essentially no effect | subjects with reduction in airway twitchiness (increased PC20) ([7]; chronic nadolol): 4 of 5 | subjects with PC20 doubling doses within the 1.5 limit ([7]; chronic nadolol, 5 subjects): Two subjects | subjects with increases of doubling doses greater than 1.5 ([7]; chronic nadolol, 5 subjects): 3 subjects | PC20 Doubling Dose ([7]; methacholine PC20 change from baseline at the end of the trial, per subject): more pronounced effect on airway hyper-responsiveness | Puffs/Day Mean Change per Day ([7]; rescue medication use, absolute change from baseline, per subject): results were mixed | Increased β2AR density [8]: showed an increase in receptor density at both 2 days and 28 days | Increased β2AR density ([8]; listed as Nadolol): yes | Bmax ([9]; 15 Minutes drug treatment, lung membranes of asthmatic mice, mean±SEM): 181.9 ± 48.28 femtomoles of sites per milligram of protein | βmax ([9]; 28 Days drug treatment, lung membranes of asthmatic mice, mean±SEM): 785.5 ± 154.8 femtomoles of sites per milligram of protein | Increased β2AR density ([9]; 15 minutes of administration): no | Increased β2AR density ([9]; 28 days of administration): showed an increase in receptor density at both 2 days and 28 days | Increased β2AR density ([9]; 28 days of administration, listed as Nadolol): yes | level of the β2-adrenergic receptor ([9]; chronic treatment, asthmatic mice): nearly eightfold increase | labeling with anti-β2-adrenergic receptor antibodies in lungs [10]: considerably more intense | Reason for Maximum Tolerated Dose: Blood Pressure ([11]; per subject): 110/68 mm Hg and 91/63 mm Hg | Reason for Maximum Tolerated Dose: FEV1 ([11]; per subject): FEV1 78% predicted; also recorded: FEV1 at 68% predicted | Reason for Maximum Tolerated Dose: Heart Rate ([11]; per subject): Heart Rate 48 bpm | Nadolol Max Tolerated Dose ([11]; per subject (001-005), once daily oral): 40 mg (2×) and 20 mg (2×) and 10 mg | Heart Rate Visit 9 ([11]; per subject, on maximum tolerated dose): 71 bpm and 70 bpm (2×) and 72 bpm and 53 bpm | Heart rate at 4 hrs after administration of dose ([11]; visit 5): 42 bpm | Heart rate at 4 hrs after administration of dose ([11]; visit 6): 48 bpm

From patent US7528175B2, “Method of treating airway diseases with beta-adrenergic inverse agonists” (Inverseon, Inc., priority 2005, dated 2009)
